The results in this text go back to PMC5498006 (Biochemistry, 2016).

SMILES strings stand for the structures.

The assay has as its target T1, CCL21 (CC chemokine ligand 21), truncated (Homo sapiens, UniProt O00585).
T1 sequence (O00585 24-102): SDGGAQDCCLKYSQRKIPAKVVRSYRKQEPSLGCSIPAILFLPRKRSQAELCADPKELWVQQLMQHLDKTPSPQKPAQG
In words: 2D 1H-15N HSQC NMR titration. It counts as binding.

For the compound `N[C@@H](Cc1ccc(OS(=O)(=O)O)cc1)C(=O)O` [sY, sulfotyrosine], the Kd (usually a measure of binding affinity in units of concentration) was around 38.9 mM.
